# Measurements: US20230095836A1, “SUBSTITUTED 5,6-DIPHENYL-3(2H)-PYRIDAZINONES FOR USE AS FUNGICIDES” (FMC Corporation, priority 2020, published 2023)
# Key:
# Assay type in all cases: in vivo
# [1] = tested on: Puccinia recondita f. sp. tritici; experiment: Test B: test solution sprayed on wheat seedlings, inoculated next day with Puccinia recondita f. sp. tritici (wheat leaf rust); disease rating (100 = 100% disease control, 0 = no control; dash = not tested)
# From the text: The resulting test suspensions were then used in Tests A-F. The test solution was sprayed to the point of run-off on wheat seedlings. […] A rating of 100 indicates 100% disease control and a rating of 0 indicates no disease control (relative to the controls). A dash (—) indicates the compound was not tested.
# Phakopsora pachyrhizi = experiment: Test D: test solution sprayed on soybean seedlings, inoculated next day with Phakopsora pachyrhizi (Asian soybean rust); visual disease rating (100 = 100% disease control, 0 = no control; dash = not tested)
# Outline: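 Preventive spray test: soybean seedlings treated to run-off with ppm-level suspensions (acetone/water 50/50, 250 ppm PEG400), spore-inoculated one day later. Held 24 h at 22 °C in saturated air, then 8 days at 22 °C; disease control scored visually versus untreated plants, 0 = none, 100 = complete.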
# Alternaria solani = experiment: Test F: test suspension sprayed on tomato seedlings, inoculated next day with Alternaria solani (tomato early blight); visual disease rating (100 = 100% disease control, 0 = no control; dash = not tested)
# Outline: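 Visual ratings of % disease control versus controls were made after inoculated plants spent 48 h at 27° C. in saturated air plus 3 days at 20° C. The compound suspension had been sprayed to run-off one day before spore inoculation.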
# Botrytis cinerea = experiment: Test E: test suspension sprayed on tomato seedlings, inoculated next day with Botrytis cinerea (tomato Botrytis); visual disease rating (100 = 100% disease control, 0 = no control; dash = not tested)
# Outline: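 Spores were applied one day after spraying the seedlings to run-off. Incubation was 48 h saturated at 20° C, then 3 days in a 24° C growth chamber. Visual ratings, relative to untreated controls, run from 0 (no control) to 100 (complete control).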
# [2] = tested on: Blumeria graminis f. sp. tritici; experiment: Test C: test suspension sprayed on wheat seedlings, inoculated next day with Blumeria graminis f. sp. tritici (wheat powdery mildew); visual disease rating (100 = 100% disease control, 0 = no control; dash = not tested)
# Outline: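 Visual ratings of disease control (0–100, relative to controls) were made 8 days after inoculation with B. graminis f. sp. tritici spore dust. Plants were held at 20 °C. Compound was applied as a spray to run-off one day before inoculation.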
# Zymoseptoria tritici = experiment: Test A: test solution sprayed on wheat seedlings, inoculated next day with Zymoseptoria tritici (wheat leaf blotch); disease rating (100 = 100% disease control, 0 = no control; dash = not tested)
# Outline: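 Preventive spray test: compound applied to run-off one day before spore inoculation of wheat seedlings. Incubation was 48 h saturated humidity at 24° C followed by 17 days at 20° C. Disease then scored 0–100 as % control versus untreated plants.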
SMILES,Test B disease control rating ([1]; 50 ppm) [%],Test D disease control rating (Phakopsora pachyrhizi; 50 ppm) [%],Test F disease control rating (Alternaria solani; 50 ppm) [%],Test E disease control rating (Botrytis cinerea; 50 ppm) [%],Test C disease control rating ([2]; 50 ppm) [%],Test A disease control rating (Zymoseptoria tritici; 50 ppm) [%],also measured
COCc1c(-c2ccc(F)cc2Cl)c(-c2ccc(F)cc2Cl)nn(C)c1=O [Compound 122],0,0,0,53,98,100,–
Cn1nc(-c2ccc(F)cc2Cl)c(-c2ccc(F)cc2Cl)c(C(C)(C)O)c1=O [Compound 123],0,68,0,0,0,0,–
CC(=O)c1c(-c2ccc(F)cc2Cl)c(-c2ccc(F)cc2Cl)nn(C)c1=O [Compound 124],0,73,0,88,95,100,–
CCCc1c(-c2ccc(F)cc2Cl)c(-c2cc(OC)ccc2Cl)nn(C)c1=O [Compound 125],0,17,0,99,97,100,–
Cn1nc(-c2cc(F)ccc2Cl)c(-c2ccc(F)cc2Cl)cc1=O [Compound 126],74,0,15,98,98,95,–
Cc1c(-c2ccc(F)cc2Cl)c(-c2cc(F)ccc2Cl)nn(C)c1=O [Compound 128],100,99,100,98,100,100,–
CCc1c(-c2ccc(F)cc2Cl)c(-c2cc(F)ccc2Cl)nn(C)c1=O [Compound 129],100,67,100,99,100,100,–
"CCc1c(-c2ccc(F)cc2Cl)c(-c2cc(OC)ccc2Cl)nn(C)c1=O [Compound 134, 5-(2-chloro-4-fluorophenyl)-6-(2-chloro-5-methoxyphenyl)-4-ethyl-2-methyl-3(2H)-pyridazinone]",–,–,–,–,–,–,pest or weed control at 50 ppm ([1]; 50 ppm): 100%; pest or weed control at 50 ppm (Phakopsora pachyrhizi; 50 ppm): 96%; pest or weed control at 50 ppm (Alternaria solani; 50 ppm): 100%; pest or weed control at 50 ppm (Botrytis cinerea; 50 ppm): 98%; pest or weed control at 50 ppm ([2]; 50 ppm): 100%; pest or weed control at 50 ppm (Zymoseptoria tritici; 50 ppm): 100%
COc1ccc(C)c(-c2nn(C)c(=O)c(C)c2-c2ccc(F)cc2Cl)c1 [Compound 135],100,100,100,97,100,100,–
"Cc1ccc(Cl)c(-c2nn(C)c(=O)c(C)c2-c2ccc(F)cc2Cl)c1 [Compound 136, 5-(2-chloro-4-fluorophenyl)-6-(2-chloro-5-methylphenyl)-2,4-dimethyl-3(2H)-pyridazinone]",–,–,–,–,–,–,pest or weed control at 50 ppm ([1]; 50 ppm): 100%; pest or weed control at 50 ppm (Phakopsora pachyrhizi; 50 ppm): 97%; pest or weed control at 50 ppm (Alternaria solani; 50 ppm): 40%; pest or weed control at 50 ppm (Botrytis cinerea; 50 ppm): 95%; pest or weed control at 50 ppm ([2]; 50 ppm): 100%; pest or weed control at 50 ppm (Zymoseptoria tritici; 50 ppm): 99%
COc1cc(F)c(F)c(-c2nn(C)c(=O)c(C)c2-c2ccc(F)cc2Cl)c1 [Compound 137],100,100,100,66,100,100,–
COc1ccc(F)c(-c2nn(C)c(=O)c(C)c2-c2ccc(F)cc2Cl)c1 [Compound 138],100,100,100,93,100,100,–
COc1ccc(Cl)c(-c2nn(C)c(=O)c(C3CC3)c2-c2ccc(F)cc2Cl)c1 [Compound 139],86,0,9,93,91,100,–
COc1cccc(-c2nn(C)c(=O)c(Cl)c2-c2ccc(F)cc2Cl)c1Cl [Compound 140],100,100,100,99,99,99,–
"Cn1nc(-c2ccccc2)c(-c2ccc(F)cc2Cl)c(Cl)c1=O [Compound 141, 4-chloro-5-(2-chloro-4-fluorophenyl)-2-methyl-6-phenyl-3(2H)-pyridazinone]",–,–,–,–,–,–,pest or weed control at 50 ppm ([1]; 50 ppm): 98%; pest or weed control at 50 ppm (Phakopsora pachyrhizi; 50 ppm): 0%; pest or weed control at 50 ppm (Alternaria solani; 50 ppm): 99%; pest or weed control at 50 ppm (Botrytis cinerea; 50 ppm): 98%; pest or weed control at 50 ppm ([2]; 50 ppm): 99%; pest or weed control at 50 ppm (Zymoseptoria tritici; 50 ppm): 99%
"COc1c(-c2ccc(F)cc2Cl)c(-c2ccccc2)nn(C)c1=O [Compound 142, 5-(2-chloro-4-fluorophenyl)-4-methoxy-2-methyl-6-phenyl-3(2H)-pyridazinone]",–,–,–,–,–,–,pest or weed control at 50 ppm ([1]; 50 ppm): 68%; pest or weed control at 50 ppm (Phakopsora pachyrhizi; 50 ppm): 0%; pest or weed control at 50 ppm (Alternaria solani; 50 ppm): 98%; pest or weed control at 50 ppm (Botrytis cinerea; 50 ppm): 98%; pest or weed control at 50 ppm ([2]; 50 ppm): 99%; pest or weed control at 50 ppm (Zymoseptoria tritici; 50 ppm): 95%
CCOC(=O)c1c(-c2ccc(F)cc2Cl)c(-c2ccc(F)cc2Cl)nn(C)c1=O [Compound 143],–,–,–,–,–,–,Test B disease control rating ([1]; 250 ppm): 80%; Test D disease control rating (Phakopsora pachyrhizi; 250 ppm): 0%; Test F disease control rating (Alternaria solani; 250 ppm): 0%; Test E disease control rating (Botrytis cinerea; 250 ppm): 0%; Test C disease control rating ([2]; 250 ppm): 100%; Test A disease control rating (Zymoseptoria tritici; 250 ppm): 6%
Cn1nc(-c2ccc(F)cc2Cl)c(-c2ccc(F)cc2Cl)c(C(=O)O)c1=O [Compound 144],–,–,–,–,–,–,Test B disease control rating ([1]; 250 ppm): 0%; Test D disease control rating (Phakopsora pachyrhizi; 250 ppm): 74%; Test F disease control rating (Alternaria solani; 250 ppm): 0%; Test E disease control rating (Botrytis cinerea; 250 ppm): 0%; Test C disease control rating ([2]; 250 ppm): 0%; Test A disease control rating (Zymoseptoria tritici; 250 ppm): 0%
Cn1nc(-c2cccc(F)c2Cl)c(-c2ccc(F)cc2Cl)c(Cl)c1=O [Compound 145],100,99,100,100,100,100,–
COc1cccc(-c2nn(C)c(=O)c(OC)c2-c2ccc(F)cc2Cl)c1Cl [Compound 146],100,96,99,98,100,100,–
CCOC(=O)c1c(-c2ccc(F)cc2Cl)c(-c2ccc(F)cc2Cl)nn(C)c1=O [Compound 153],–,–,–,–,–,–,Test B disease control rating ([1]; 250 ppm): 0%; Test D disease control rating (Phakopsora pachyrhizi; 250 ppm): 71%; Test F disease control rating (Alternaria solani; 250 ppm): 0%; Test E disease control rating (Botrytis cinerea; 250 ppm): 0%; Test C disease control rating ([2]; 250 ppm): 96%; Test A disease control rating (Zymoseptoria tritici; 250 ppm): 0%
